Experimental data published in patent US20190282569A1, “STABLE PHARMACEUTICAL COMPOSITION” (ASTELLAS PHARMA INC., priority 2016, published 2019).

Assays:
[1] = system: epidermal growth factor receptor (EGFR) mutant kinase; conditions: disclosed in Patent literature 1 (WO 2013/108754); cited from earlier work
[2] = Stability of the drug substance itself; format: physicochemical; conditions: drug substance alone, without pharmaceutical additives

SMILES	inhibitory action on an epidermal growth factor receptor (EGFR) mutant kinase [1]	stability of the drug itself (in words) [2]
C=CC(=O)N1CC[C@@H](Oc2nc(Nc3ccc(N4CCC(N5CCN(C)CC5)CC4)cc3)c(C(N)=O)nc2CC)C1 [compound A, 5-{[(3R)-1-Acryloylpyrrolidin-3-yl]oxy}-6-ethyl-3-({4-[4-(4-methylpiperazin-1-yl)piperidin-1-yl]phenyl}amino)-pyrazine-2-carboxamide]	confirmed	–
C=CC(=O)N1CC[C@@H](Oc2nc(Nc3ccc(N4CCC(N5CCN(C)CC5)CC4)cc3)c(C(N)=O)nc2CC)C1.CS(=O)(=O)O [compound A monomethanesulfonate, 5-{[(3R)-1-acryloylpyrrolidin-3-yl]oxy}-6-ethyl-3-({4-[4-(4-methylpiperazin-1-yl)piperidin-1-yl]phenyl}amino)-pyrazine-2-carboxamide monomethanesulfonate]	–	stable
